Reference: article PMC9338942, “(+)-Usnic acid and its salts, inhibitors of SARS‐CoV‐2, identified by using in silico methods and in vitro assay” (Scientific Reports, 2022)

Assays:
Assay in all cases: microbe, parasite or virus in culture
Assay type in all cases: cell-based
Settings in all cases: Severe acute respiratory syndrome coronavirus 2, vero cells
[1] = tested on: SARS-CoV-2 Alpha var (B.1.1.7)
[2] = tested on: SARS-CoV-2 Beta var (B.1.351)
[3] = tested on: SARS-CoV-2 Delta var (B.1.617.2)

| SMILES | IC50 [1] [µM] | IC50 [2] [µM] | IC50 [3] [µM] |
| --- | --- | --- | --- |
| CC(=O)c1c(O)c(C)c(O)c2c1OC1=CC(=O)C(C(C)=O)C(=O)[C@@]12C (single isomer, unassigned; (+)) [(+)-usnic acid] | 6.05 | 2.92 | 7.17 |
| CCC(CC)COC(=O)[C@H](C)N[P@](=O)(OC[C@H]1O[C@@](C#N)(c2ccc3c(N)ncnn23)[C@H](O)[C@@H]1O)Oc1ccccc1 [remdesivir] | 2.25 | 1.47 | 6.48 |
| CCN(CC)CCCC(C)Nc1ccnc2cc(Cl)ccc12 (stereo not drawn) [chloroquine] | 6.16 | 2.64 | 6.22 |
| Cc1cccc(C)c1OCC(=O)N[C@@H](Cc1ccccc1)[C@@H](O)C[C@H](Cc1ccccc1)NC(=O)[C@H](C(C)C)N1CCCNC1=O [lopinavir] | 10.8 | 11.8 | 15.3 |
